Assay results taken from patent US12527798B2, “Preservation of immune response during chemotherapy regimens” (Pharmacosmos Holding A/S, priority 2016, dated 2026).
Where two headings read alike, the source gives them in different places.

Experiments:
[1] = test system: MC38 tumor cells; assay type: in vivo; conditions: interim data, dosing schedule not given
Procedure: (§1) Anti-tumor activity of Compound I in combination with mouse anti-PD-L1 (clone 10F.9G2), and 5-flurouracil (5-FU) was evaluated in the MC38 syngeneic murine colon carcinoma model. For all xenograft studies, nine-week old female C57BL/6 mice (C57BL/6NCrl) were implanted with MC38 tumor cells and treatment was initiated when mean tumor volume was approximately 100 mm^3.
Briefly, Compound I (100 mg/kg) and 5-FU (75 mg/kg) were administered intraperitoneally (IP) once weekly for three doses. […] In the Induction (I) dosing schedule, mouse anti-PD-L1 (100 μg/animal, IP) was given twice weekly for two weeks starting on Day 1 and ending on Day 15. In the Maintenance (M) dosing schedule, mouse anti-PD-L1 (100 μg/animal, IP) was given twice weekly starting on Day 15 and continuing through the end of study. In the Induction+Maintenance (IM) dosing schedule, mouse anti-PD-L1 (100 μg/animal, IP) was given twice weekly starting on Day 1 and continuing through the end of study.
(§2) Single, two, and three drug combinations were tested and Compound I was administered minutes prior to chemotherapy treatment. Complete response (CR) and partial response (PR) were calculated using standard Charles River Laboratories (CRL; RTP, NC) criteria. Body weight (BW) and health were monitored, and tumor volume was measured twice weekly. The individual tumor volume endpoint was 1000 mm^3 or Day 100, whichever came first. The arms of the study included the following: • 1) vehicle • 2) 5-FU+anti-PD-L1 (clone 10F.9G2), IM dosing schedule • 3) Compound I+5-FU+anti-PD-L1 (clone 10F.9G2), IM dosing schedule • 4) 5-FU+anti-mouse PD-L1 (clone 10F.9G2), M dosing schedule • 5) Compound I+5-FU+anti-mouse PD-L1 (clone 10F.9G2), M dosing schedule • 6) 5-FU+anti-mouse PD-L1 (clone 10F.9G2), I dosing schedule • 7) Compound I+5-FU+anti-mouse PD-L1 (clone 10F.9G2), I dosing schedule

[2] = test system: intra-tumor immune cells; test: EdU incorporation in intra-tumor immune cell populations of MC38 tumor-bearing mice (Example 10); assay type: in vivo, C57BL/6 mice; conditions: one dose 100 mg/kg IP; EdU 6 to 48 hours after treatment; FIGS. 21, 22
Procedure: MC38 tumor-bearing C57BL/6 mice were treated with one dose of Compound I (100 mg/kg, IP), followed by in vivo EdU (5-ethynyl-2′-deoxyuridine, 200 μg/mouse, IP) incorporation 6 to 48 hours after treatment with Compound I. Eighteen hours after EdU dosing, mice were euthanized and tumors were harvested for analysis. Tumors were processed to single-cell suspensions, followed by depletion of dead cells and enrichment of CD45+ immune cells prior to antibody labeling for various lymphoid and myeloid immune cell populations defined as follows: CD8+ T cells (CD4−CD8+), CD4+ T cells (CD4+CD8−Foxp3−), Tregs (CD4+CD8−Foxp3+), NK (CD3−NK1.1+), monocytic myeloid derived suppressor cells (mMDSCs, CD11b+Ly6C+Ly6G−), granulocytic myeloid derived suppressor cells (gMDSCs, CD11b+Ly6C+Ly6G+), and macrophages (CD11b+Ly6C−Ly6G−). After cell surface staining, cell samples were fixed and EdU incorporation was detected by click chemistry followed by flow cytometric analysis. Inhibition of proliferation is represented as the (% EdU+ in Compound I treated)/(% EdU+ in vehicle treated)×100 for each cell population at each time point.

[3] = test system: MC38 tumor cells; assay type: in vivo; conditions: dosing schedule not given, anti-PD-L1 combination study
Procedure: as §1, with “PD-L1” for “mouse anti-PD-L1”, “10F.9G2)” for “10F.9G2),”, “oxaliplatin” for “5-flurouracil (5-FU)”
Briefly, Compound I (100 mg/kg) and oxaliplatin (10 mg/kg) were administered intraperitoneally (IP) once weekly for three doses and the checkpoint inhibitor administration was varied as depending on the dosing schedule. In the Induction (I) dosing schedule, mouse anti-PD-L1 (100 μg/animal, IP) was given twice weekly for two weeks starting on Day 1 and ending on Day 15. In the Maintenance (M) dosing schedule, mouse anti-PD-L1 (100 μg/animal, IP) was given twice weekly starting on Day 15 and continuing through the end of study. In the Induction+Maintenance (IM) dosing schedule, mouse anti-PD-L1 (100 μg/animal, IP) was given twice weekly starting on Day 1 and continuing through the end of study.
as §2, with “administered 30” for “administered”, “2) Compound I+anti-PD-L1” for “2) 5-FU+anti-PD-L1”, “Compound I+Oxaliplatin+anti-PD-L1” for “Compound I+5-FU+anti-PD-L1”, “4) Oxaliplatin+anti-mouse” for “4) 5-FU+anti-mouse”, “Compound I+oxaliplatin+anti-mouse” for “Compound I+5-FU+anti-mouse”, “6) oxaliplatin+anti-mouse” for “6) 5-FU+anti-mouse”

[4] = test system: CD8+ T cells; test: CFSE proliferation of CD8+ T cells in the presence of Tregs treated with Compound I (Example 9); assay type: cell-based, C57BL/6 mice; conditions: splenocytes stimulated with anti-CD3/CD28 72 hours; FIG. 20
Procedure: (§3) CD4+CD25+ Tregs were purified from spleens of C57BL/6 mice using a two-step magnetic bead separation process-depletion of all non-CD4+ cells followed by positive selection of CD25+ cells. Purified Tregs were cultured ex-vivo with […] antibodies and IL-2 for 48 hours with either 0, 250, or 1000 nM trilaciclib. […] The percentage of phospho-Rb+ Tregs was defined as phospho-Rb+ cells in the CD4+Foxp3+ population. […] CFSE-labeled splenocytes were stimulated ex-vivo with anti-CD3/CD28 antibodies for 72 hours in the presence or absence of Tregs treated with Compound I. Cells were stained with anti-CD4 and CD8 antibodies, and T cell proliferation was assessed by the dilution of the mean fluorescence intensity of CFSE in CD4-CD8+ T cells by flow cytometric analysis. Percent proliferation was calculated as (mean CFSE intensity of CD8+ T cells stimulated in the absence of Tregs)/(mean CFSE intensity of CD8+ T cells stimulated in the presence of Tregs)×100, the results of which are shown in FIG. 19 and FIG. 20.

[5] = test system: MC38 tumor cells; assay type: in vivo; conditions: dosing schedule not given, anti-PD-1 combination study
Procedure: For all xenograft studies, nine-week old female C57BL/6 mice (C57BL/6NCrl) were implanted with MC38 tumor cells and treatment was initiated when mean tumor volume was approximately 100 mm^3. Compound I was administered in combination with oxaliplatin and […] according to the Induction and Maintenance (IM) dosing schedule, which is shown in FIG. 3.
Briefly, Compound I (100 mg/kg) and oxaliplatin (10 mg/kg) were administered intraperitoneally (IP) once weekly for three doses and mouse […] (5 mg/kg, IP) was given twice weekly starting on Day 1 and continuing through the end of study.
Single, two, and three drug combinations were tested and Compound I was administered 30 minutes prior to chemotherapy treatment. Complete response (CR) and partial response (PR) were calculated using standard Charles River Laboratories (CRL; RTP, NC) criteria. Body weight (BW) and health were monitored, and tumor volume was measured twice weekly. The individual tumor volume endpoint was 1000 mm^3 or Day 100, whichever came first.

[6] = test system: MC38 tumor; test: MC38 tumor volume under continuous daily dosing of Compound I with or without anti-PD-L1 (Example 16); assay type: in vivo, mice; conditions: continuous Compound I (daily x 28 days, IP, 100 mg/kg) added to anti-PD-L1; FIG. 38
Procedure: MC38 tumor-bearing mice were treated with Compound I (daily×28 days, IP, 100 mg/kg) with or without anti-PD-L1 (biweekly×2 weeks, IP, 100 ug/animal) and tumor volume was evaluated.

[7] = test system: MC38 tumors; test: Whole-tumor gene expression, PanCancer Immune Profiling Panel, two weekly doses (Examples 12 and 14); assay type: in vivo, C57BL/6 mice; conditions: two weekly doses 100 mg/kg IP, p <0.05, absolute fold change >1.3
Procedure: MC38 tumor-bearing C57BL/6 mice were treated with two weekly doses of Compound I (100 mg/kg, IP). One day after the last dose, mice were euthanized and tumors were harvested for analysis. Gene expression analysis was performed on whole tumors using the PanCancer Immune Profiling Panel. Normalized and Log 2 transformed expression values were used for identification of differentially expressed genes, defined using a p-value cutoff of <0.05 and absolute fold change >1.3.

[8] = test system: splenocytes; test: Ex vivo splenocyte stimulation, IL-2 and IFNγ ELISA after 5-FU treatment (Example 6); assay type: in vivo, C57BL/6 mice; conditions: Compound I 100 mg/kg added to 5-FU 50 mg/kg, 3 daily IP doses, splenocytes stimulated with anti-CD3/CD28 72 h
Procedure: C57BL/6 mice were treated with 3 daily IP doses of 50 mg/kg 5-FU±100 mg/kg Compound I. Two and seven days after the final treatment, mice were euthanized and spleens were harvested. Splenocytes were stimulated ex vivo with anti-CD3/CD28 antibodies for 72 hours and interferon gamma (IFNγ) or interleukin-2 (IL-2) levels were measured via ELISA (R&D systems). After the ex-vivo splenocyte stimulation in C57BL/6 mice, Compound I enhanced IL-2 production (FIG. 12) and preserved IFNγ production (FIG. 13) after 5-FU treatment. A potential mechanism by which Compound I enhances anti-tumor activity includes the preservation of T lymphocyte function from chemotherapy.

[9] = test system: CDK4/6-Rb pathway; test: Phospho-Rb in purified Tregs cultured ex vivo, flow cytometry (Example 9); assay type: cell-based, C57BL/6 mice; conditions: 0, 250 or 1000 nM, 48 hours; FIG. 19
Procedure: as §3

[10] = test system: MC38 tumors; test: Whole-tumor interferon-gamma (Ifng) expression, PanCancer Immune Profiling Panel (Example 13); assay type: in vivo, C57BL/6 mice; conditions: Compound I added to oxaliplatin or oxaliplatin/anti-PD-L1 combinations, eight days; FIGS. 28-31
Procedure: Twenty-four hours after the final dose, mice were euthanized and tumors were harvested for analysis. Gene expression analysis was performed on whole tumors using the PanCancer Immune Profiling Panel. The normalized and Log 2 transformed expression level of interferon-gamma (Ifng) is plotted for each pair of treatment groups with or without Compound I. T=Compound I, O=oxaliplatin, P=anti-PD-L1.

[11] = test system: CD4+ and CD8+ T cells; test: T cell activation (CD69, IL-2) in splenocytes of MC38 tumor-bearing mice (Example 8); assay type: in vivo; conditions: Compound I added to oxaliplatin and anti-PD-L1, four days; spleen; FIGS. 16, 17
Excerpt: Twenty-four hours after the final dose, the mice were euthanized and spleens were harvested and processed to single-cell suspensions for T-cell analysis. Splenocytes were stained with anti-CD4, CD8, and CD69 antibodies for flow cytometric analysis. The percentage of activated CD4+ T cells was defined as the proportion of CD69+ cells within the CD8−CD4+ T cell fraction, while the percentage of activated CD8+ T cells was defined as the proportion of CD69+ cells within the CD8+CD4− T cell fraction, the results of which are shown in FIGS. 16 and 17. Additionally, splenocytes were also stimulated ex-vivo with anti-CD3/CD28 antibodies for 72 hours and were stained with anti-CD4, CD8, and IL-2 antibodies for flow cytometric analysis. The percentage of IL-2+ cells was defined as the proportion of IL-2+ cells within the […] T cell fraction, the results of which are shown in FIG. 18.

[12] = test system: CT26 tumor; test: CT26 tumor growth in mice (Example 7); assay type: in vivo; conditions: Compound I added to an anti-PD-L1/oxaliplatin regimen
Procedure: CT26 bearing mice are treated with Compound I (IP, 100 mg/kg, weekly×3), anti-PD-L1 (IP, 5 mg/animal, biweekly to end), and/or oxaliplatin (IP, 10 mg/kg, weekly×3) and tumors were evaluated.

Compound	Complete Response % [3]	Objective Response Rate % [3]	Overall Survival (OS) [3]	Partial Response % [3]	Complete Response % [5]	Objective Response Rate % [5]	Overall Survival (OS) [5]	Partial Response % [5]	also measured
O=c1[nH]cc(F)c(=O)[nH]1 [Compound 5-FU, 5-Fluorouracil]	–	–	–	–	–	–	–	–	Overall Survival @ D29% ([1]; Day 29): 30%; Complete Response % ([1]; MC38): 0%; Objective Response Rate % ([1]; MC38): 0%; Partial Response % ([1]; MC38): 0%; Progressive Disease % ([1]; percent of tumors that have doubled in size by Day 29): 100%
CN1CCN(c2ccc(Nc3ncc4cc5n(c4n3)C3(CCCCC3)CNC5=O)nc2)CC1 [Compound I, trilaciclib]	0%	0%	19	0%	10%	20%	22	10%	proliferation of intra-tumor lymphoid and myeloid immune cell populations (EdU) [2]: transient and reversible inhibition of cell proliferation; proliferation of CD8+ T cells in the presence of Tregs treated with Compound I [4]: dose-dependent increase in proliferation; anti-tumor effect (tumor volume) [6]: does not enhance the anti-tumor effect and, in fact, causes some attenuation; expression of genes Il2, Il18, and Lta (positive regulation of interferon-gamma production) ([7]; FIGS. 25-27): Up-regulated; expression of genes Cdkn1a, Cxcl1, Il6, Il10, Il19, Ptgs2 (reactive oxygen species metabolism) ([7]; FIGS. 32-37): Down-regulated; IL-2 production ([8]; FIG. 12): enhanced; IFNγ production ([8]; FIG. 13): preserved; phospho-Rb level in Tregs [9]: dose-dependent down-regulation; interferon-gamma gene expression in tumor [10]: Upregulation; T cell activation (CD69+ CD4+ and CD8+ T cells) [11]: Enhanced T Cell Activation; anti-tumor efficacy [12]: consistently enhanced anti-tumor efficacy
O=C1[O][Pt]2([NH][C@@H]3CCCC[C@H]3[NH]2)[O]C1=O [Oxaliplatin, oxaliplatin, reference compound]	22%	22%	36	0%	10%	10%	31	0%	–
